In the NIST ThermoML archive (doi:10.1021/acs.jced.9b00419):
Several values for one entry are separate records, joined by “and”; a condition that tells them apart may be missing. Identical values can stand only once. ± gives the expanded uncertainty stated by the source.

Details: Liquid, Transpiration method

CCCCCCOC(=O)CCCCC [hexanoic acid, hexyl ester]
Details | vapor or sublimation pressure
298.4 K | 0.00313 ± 0.00021 kPa
303.2 K | 0.0049 ± 0.00032 kPa
308 K | 0.00732 ± 0.00051 kPa
312.8 K | 0.01166 ± 0.00079 kPa and 0.01116 ± 0.00074 kPa
317.7 K | 0.01667 ± 0.0011 kPa
322.6 K | 0.0257 ± 0.0017 kPa
327.5 K | 0.03605 ± 0.0023 kPa
332.4 K | 0.05276 ± 0.0034 kPa
337.3 K | 0.07541 ± 0.0048 kPa
342.3 K | 0.1055 ± 0.0066 kPa
347.3 K | 0.1426 ± 0.0089 kPa and 0.1453 ± 0.0091 kPa

CCCCCCC(CO)CCCC (stereo unspecified) [2-butyl-1-octanol]
Details | vapor or sublimation pressure [kPa]
308.1 K | 0.00112 ± 8e-05
312.9 K | 0.00195 ± 0.00013
317.8 K | 0.00325 ± 0.00022
322.7 K | 0.00526 ± 0.00038
327.6 K | 0.00824 ± 0.00057
332.5 K | 0.01315 ± 0.00087
337.5 K | 0.02027 ± 0.0013
342.6 K | 0.03024 ± 0.0019
347.6 K | 0.0452 ± 0.0029
352.6 K | 0.06767 ± 0.0043
